Key:
[1] = target: T1, 45 kDa Arg-specific proteinase (Porphyromonas gingivalis, UniProt P28784); assay: biochemical; format: biochemical, P. gingivalis W50; conditions: for activity at 1000 µM / activity at 10000 µM / activity at 100 µM: read-out: Activity (%) of the 45 kDa Arg-specific proteinase
T1 construct: made in house; host or cells: native protein purified from sonicate of P. gingivalis W50 cells (Q-sepharose, Superose 12, Arg-sepharose 200 mM arginine eluant, Mono Q)

[2] = target: PrtR45, 45 kDa Arg-specific proteinase (Porphyromonas gingivalis W50); assay: cell-based or functional assay
Chain of PrtR45, 45 kDa Arg-specific proteinase (Porphyromonas gingivalis W50) (B2RM93 225-247): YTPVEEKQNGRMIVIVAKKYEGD

[3] = target: 48 kDa Lys-specific proteinase (PrtK48) (Porphyromonas gingivalis, UniProt Q51817); format: biochemical, P. gingivalis W50
Chain of 48 kDa Lys-specific proteinase (PrtK48) (Q51817 229-680 limits assumed): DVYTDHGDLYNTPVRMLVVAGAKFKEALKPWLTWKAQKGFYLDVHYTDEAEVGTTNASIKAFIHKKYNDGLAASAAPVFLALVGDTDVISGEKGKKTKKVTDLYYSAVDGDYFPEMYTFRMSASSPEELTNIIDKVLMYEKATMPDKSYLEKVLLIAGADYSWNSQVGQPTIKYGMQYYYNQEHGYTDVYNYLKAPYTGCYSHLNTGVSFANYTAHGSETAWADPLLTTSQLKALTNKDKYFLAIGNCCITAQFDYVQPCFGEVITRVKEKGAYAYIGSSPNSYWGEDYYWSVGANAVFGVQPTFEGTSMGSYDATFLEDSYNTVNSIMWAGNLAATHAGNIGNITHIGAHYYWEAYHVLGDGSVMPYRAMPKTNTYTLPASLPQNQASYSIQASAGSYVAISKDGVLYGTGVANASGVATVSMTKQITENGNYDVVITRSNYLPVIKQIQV

[4] = compound 1.0 mM, incubation also contained 1.0 mM 2-mercaptoethanol
[5] = compound 10.0 mM, incubation also contained 1.0 mM 2-mercaptoethanol

T1 sequence (P28784 228-719): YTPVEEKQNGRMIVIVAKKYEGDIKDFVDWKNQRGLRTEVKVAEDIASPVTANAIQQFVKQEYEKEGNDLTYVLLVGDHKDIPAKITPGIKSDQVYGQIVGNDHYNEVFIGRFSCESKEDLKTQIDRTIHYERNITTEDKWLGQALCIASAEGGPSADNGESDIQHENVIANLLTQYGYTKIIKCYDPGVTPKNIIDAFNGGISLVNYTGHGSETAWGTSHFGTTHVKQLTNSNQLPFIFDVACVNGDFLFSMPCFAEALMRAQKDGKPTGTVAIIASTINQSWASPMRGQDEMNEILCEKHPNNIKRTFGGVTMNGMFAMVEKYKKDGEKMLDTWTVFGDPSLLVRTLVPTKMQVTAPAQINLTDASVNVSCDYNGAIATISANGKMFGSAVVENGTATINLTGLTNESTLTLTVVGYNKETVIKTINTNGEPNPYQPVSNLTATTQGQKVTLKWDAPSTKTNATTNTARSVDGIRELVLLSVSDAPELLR

## O=C(O)c1cc[c]([Hg][Cl])cc1 [PCMB, p-chloromercuribenzoic acid]
[1]; [4]
  Activity (%) of the 45 kDa Arg-specific proteinase: 100%
[1]; [5]
  Activity (%) of the 45 kDa Arg-specific proteinase: 14%

## NCCc1ccc(S(=O)(=O)F)cc1 [AEBSF, [4-(2-aminoethyl)-benzenesulfonylfluoride]]
[1]
  Effect on the Arg-specific 45 kDa enzyme (in words): not inhibited
[1]; [4]
  Activity (%) of the 45 kDa Arg-specific proteinase: 93%
[1]; [5]
  Activity (%) of the 45 kDa Arg-specific proteinase: 80%

## Leupeptin (peptide)
[2]
  Activity (%) (amidolytic activity, leupeptin at 0.1 mM): 0%

## O=C(O)CI [Iodoacetic acid]
[1]
  activity at 1000 µM: 82%
  activity at 10000 µM: 19%

## CC(=O)N[C@@H](CC(C)C)C(=O)N[C@@H](CC(C)C)C(=O)N[C@H](C=O)CCCNC(=N)N [Leupeptin]
[3]
  Effect on the Lys-specific enzyme (in words): not inhibited
[1]
  Effect on the Arg-specific 45 kDa enzyme (in words): inhibited
  activity at 100 µM: 0%

## O=C(O)CN(CCN(CC(=O)O)CC(=O)O)CC(=O)O [EDTA]
[3]
  Effect on the Lys-specific enzyme (in words): not inhibited
[1]
  Effect on the Arg-specific 45 kDa enzyme (in words): inhibited
[1]; EDTA +Ca2+ 50.0 mM, incubation also contained 1.0 mM 2-mercaptoethanol
  Activity (%) of the 45 kDa Arg-specific proteinase: 97%
[1]; [4]
  Activity (%) of the 45 kDa Arg-specific proteinase: 100%
[1]; [5]
  Activity (%) of the 45 kDa Arg-specific proteinase: 4%
[1]; compound 50.0 mM, incubation also contained 1.0 mM 2-mercaptoethanol
  Activity (%) of the 45 kDa Arg-specific proteinase: 0%

## OCCS [2-mercaptoethanol]
[1]; compound 1.0 mM
  Activity (%) of the 45 kDa Arg-specific proteinase: 100%
[1]; compound 10.0 mM
  Activity (%) of the 45 kDa Arg-specific proteinase: 158%
[1]; compound 50.0 mM
  Activity (%) of the 45 kDa Arg-specific proteinase: 189%

## O[C@H](CS)[C@H](O)CS (racemic) [Dithiothreitol]
[1]
  activity at 1000 µM: 109%
  activity at 10000 µM: 174%

## O=S(=O)(F)Cc1ccccc1 [PMSF, phenylmethyl sulfonyl fluoride]
[1]
  Effect on the Arg-specific 45 kDa enzyme (in words): not inhibited
[1]; [5]
  Activity (%) of the 45 kDa Arg-specific proteinase: 90%

## N[C@@H](CS)C(=O)O [L-cysteine]
[1]
  Effect on the Arg-specific 45 kDa enzyme (in words): activated
  activity at 100 µM: 183%
  activity at 1000 µM: 320%
  activity at 10000 µM: 487%

## c1cnc2c(c1)ccc1cccnc12 [o-phenanthroline]
[1]; [5]
  Activity (%) of the 45 kDa Arg-specific proteinase: 100%

Source: US6511666B1, “Diagnostics and treatments of periodontal disease” (priority 1995, dated 2003)
